Measured values as given in publication PMC5793121 (Toxins, 2018).
Read-outs that look alike come from different tables or passages of the source. No end group written: not given here.

Assays:
[1] = target: T1, mouse muscle type α1β1εδ nAChR (Mus musculus, UniProt P02716+P04756+P20782); test: Calcium imaging of ACh-evoked [Ca2+]i rise in Neuro2a cells expressing muscle nAChR (Case12 sensor); type: cell-based
T1 construct: expressed in transfected cells; host or cells: mouse neuroblastoma Neuro2a, transient transfection (pRBG4 plasmids), co-expressed with Case12 calcium sensor
Experimental: Mouse neuroblastoma Neuro2a cells were purchased from the Russian collection of cell cultures (Institute of Cytology, Russian Academy of Sciences, Saint Petersburg, Russia). Cells were cultured in DMEM (Paneco, Moscow, Russia) supplemented with 10% FBS. They were sub-cultured the day before transfection and were plated at a density of 10,000 cells per well in a 96-well black plate. On the next day Neuro2a cells were transiently transfected with plasmids coding mouse muscle α1β1δε nAChR (pRBG4-vector) and a fluorescent calcium sensor Case12 (pCase12-cyto vector, Evrogen, Moscow, Russia) in a molar ratio of 2:1 following a lipofectamine transfection protocol (ThermoFisher Scientific, Waltham, MA, USA). Human α7 nAChR (α7 nAChR-pCEP4) was expressed accordingly with a co-expression of the human chaperone Ric-3 (Ric3-pCMV6-XL5, OriGene, Rockville, MD, USA) in a molar ratio 4:1. The transfected cells were grown at 37 °C in a CO2 incubator for 48–72 h, before performing the calcium imaging assay.
Calcium imaging procedure was performed as published earlier. Briefly, after removing the growth medium, the transfected Neuro2a cells and cultivated SH-SY5Y cells were washed with a buffer containing 140 mM NaCl, 2 mM CaCl2, 2.8 mM KCl, 4 mM MgCl2, 20 mM HEPES, 10 mM glucose; pH 7.4. Neuro2a cells expressing muscle nAChR and the protein calcium sensor Case12 were proceeded directly, while SH-SY5Y cells expressing human α3-containing nAChRs natively were loaded with a fluorescent dye Fluo-4, AM (1.824 μM, ThermoFisher Scientific, Waltham, MA, USA) and a water-soluble probenecid (1.25 mM, ThermoFisher Scientific, Waltham, MA, USA) for 30 min at 37 °C and then were kept for 30 min at room temperature according to the manufacturer’s protocol.
To detect the human α7 nAChR-mediated calcium response, transfected Neuro2a cells were incubated with its positive allosteric modulator PNU120596 (10 μM, Tocris Bioscience, Bristol, UK) for 20 min at room temperature before acetylcholine (Sigma-Aldrich Chemie Gmbh, Munich, Germany) addition. To assess mouse muscle or human α3-containing nAChRs this step was skipped. […]
The plates were transferred to the multimodal microplate reader Hidex Sence (Hidex, Turku, Finland) where the cells were excited by light of 485 nm wavelength and emitted fluorescence was detected at 535 ± 10 nm. Fluorescence was recorded every 2 s for three minutes following agonist addition. Responses were measured as peak intensity minus basal fluorescence level and were expressed as a percentage of the maximal response obtained to agonist. Data files were analyzed using Hidex Sence software (Hidex, Turku, Finland) and OriginPro 7.5 software (OriginLab, Northampton, MA, USA, for statistical analysis).

[2] = for AUC(0 → t) / Cmax / T1/2: single, [125I]-Az, blood radioactivity, 5 animals per time point
Experimental: The pharmacokinetic study was performed using 163 male ICR mice. Four experimental groups with 40 animals in each were formed. Three intact mice were used as control animals. The animals of the first two experimental groups were intravenously injected with 0.25 and 0.50 mg/kg [^125I]-Az, respectively. The animals of the other two experimental groups were intramuscularly injected with 0.25 and 0.50 mg/kg [^125I]-Az, respectively. To estimate Az elimination rate, animal blood samples were taken from the orbital sinus 5, 15, 30, 60 min and 1, 2, 4 and 24 h after [^125I]-Az administration. The obtained blood samples were weighed. For each indicated time point, [^125I]-Az concentration was calculated as a mean value in blood samples of five animals. The radioactivity (cpm) in the blood samples was counted using a Wallac 1470 WIZARD® Gamma Counter (Perkin Elmer, Waltham, MA, USA). […] Radioactivity data (cpm) were re-calculated to the concentration of [^125I]-Az in the obtained blood samples. The specific pharmacokinetic parameters (AUC (0 → t), Cmax, T1/2) of [^125I]-Az were estimated.

[3] = system: male ICR mice; test: in vivo
Experimental: Az acute toxicity was estimated for its intravenous (iv) and intramuscular (im) administration to male ICR mice in a stepwise procedure.
For the iv route of administration, 20 mice were randomly divided in 5 groups of 4 animals each. The animals of each group received a single dose of Az (0.3, 0.4, 0.5, 0.6, or 0.7 mg/kg, respectively) injected into the lateral tail vein at a volume of 1 mL/kg. For the im route of administration, first two experimental groups of 3 animals each were formed. Az at doses of 0.75 and 1.0 mg/kg, respectively, was injected into the quadriceps muscle of the thigh (quadriceps femoris muscle) of two mouse hind limbs at a volume of 0.5 mL/kg to each muscle. Then, five experimental groups of 5 animals each were formed. Az was injected into the quadriceps muscle of the thigh (quadriceps femoris muscle) of the two hind limbs of male ICR mice at doses of 0.8, 0.775, 0.75, 0.725 and 0.7 mg/kg. The injection volume to each limb was 1 mL/kg. Further, neurotoxic manifestations were recorded in animals at 5, 10, 20, 30, 60 and 90 min and 24 h after administration using the functional observation battery, the number of death was counted as well.
For the iv and im route of administration, the median lethal dose (LD50) was calculated using a probit analysis. For the im route of administration, the maximum tolerated dose was determined.
Rocuronium was administered intramuscularly at doses of 0.13 mg/kg (n = 1), 0.1 mg/kg (n = 4) and 0.08 mg/kg (n = 4) in the triceps of the forelimbs of male ICR mice (8–9 weeks old). Control animals were injected with saline (n = 4). The volume of administration was 0.5 mL/kg in each limb.

T1 sequence (P09690 24-501): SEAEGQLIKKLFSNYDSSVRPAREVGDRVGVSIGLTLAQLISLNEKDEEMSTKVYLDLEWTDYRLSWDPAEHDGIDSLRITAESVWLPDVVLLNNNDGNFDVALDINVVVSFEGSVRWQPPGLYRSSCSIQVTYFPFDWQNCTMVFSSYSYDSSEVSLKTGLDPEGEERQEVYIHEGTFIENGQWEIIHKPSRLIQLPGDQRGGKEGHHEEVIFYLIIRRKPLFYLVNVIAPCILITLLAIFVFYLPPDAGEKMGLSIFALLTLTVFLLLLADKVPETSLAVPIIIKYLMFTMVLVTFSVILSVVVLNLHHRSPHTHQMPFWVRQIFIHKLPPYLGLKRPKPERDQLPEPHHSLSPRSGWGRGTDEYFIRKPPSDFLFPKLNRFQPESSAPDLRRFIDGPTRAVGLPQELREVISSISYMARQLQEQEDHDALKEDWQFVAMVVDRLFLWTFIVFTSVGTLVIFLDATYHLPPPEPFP
T1 sequence (P04756 21-457): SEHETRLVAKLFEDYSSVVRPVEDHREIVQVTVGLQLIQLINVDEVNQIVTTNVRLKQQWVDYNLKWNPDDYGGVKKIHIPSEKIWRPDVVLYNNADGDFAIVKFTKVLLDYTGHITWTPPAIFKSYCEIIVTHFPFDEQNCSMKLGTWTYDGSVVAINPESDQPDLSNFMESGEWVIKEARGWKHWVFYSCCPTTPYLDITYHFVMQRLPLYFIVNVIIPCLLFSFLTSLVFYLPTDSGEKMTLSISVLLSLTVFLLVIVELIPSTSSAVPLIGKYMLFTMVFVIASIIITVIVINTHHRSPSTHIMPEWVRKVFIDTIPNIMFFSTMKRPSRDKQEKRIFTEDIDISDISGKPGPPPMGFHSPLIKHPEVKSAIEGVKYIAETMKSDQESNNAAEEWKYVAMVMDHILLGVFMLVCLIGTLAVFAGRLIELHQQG
T1 sequence (P02716 25-520): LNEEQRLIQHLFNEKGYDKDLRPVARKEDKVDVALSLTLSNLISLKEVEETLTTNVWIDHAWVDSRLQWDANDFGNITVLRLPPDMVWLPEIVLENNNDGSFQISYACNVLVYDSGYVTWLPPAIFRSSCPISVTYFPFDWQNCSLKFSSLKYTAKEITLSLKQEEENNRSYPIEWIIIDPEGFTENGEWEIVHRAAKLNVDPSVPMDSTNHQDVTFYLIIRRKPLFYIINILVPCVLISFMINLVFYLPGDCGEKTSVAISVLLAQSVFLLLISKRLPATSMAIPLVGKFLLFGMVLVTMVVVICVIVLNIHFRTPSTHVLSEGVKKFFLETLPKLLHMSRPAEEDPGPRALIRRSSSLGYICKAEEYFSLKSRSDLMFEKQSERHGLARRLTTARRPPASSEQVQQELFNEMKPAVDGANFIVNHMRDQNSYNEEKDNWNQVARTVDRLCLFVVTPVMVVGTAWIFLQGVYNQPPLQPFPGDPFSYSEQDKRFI
T1 sequence (P20782 21-493): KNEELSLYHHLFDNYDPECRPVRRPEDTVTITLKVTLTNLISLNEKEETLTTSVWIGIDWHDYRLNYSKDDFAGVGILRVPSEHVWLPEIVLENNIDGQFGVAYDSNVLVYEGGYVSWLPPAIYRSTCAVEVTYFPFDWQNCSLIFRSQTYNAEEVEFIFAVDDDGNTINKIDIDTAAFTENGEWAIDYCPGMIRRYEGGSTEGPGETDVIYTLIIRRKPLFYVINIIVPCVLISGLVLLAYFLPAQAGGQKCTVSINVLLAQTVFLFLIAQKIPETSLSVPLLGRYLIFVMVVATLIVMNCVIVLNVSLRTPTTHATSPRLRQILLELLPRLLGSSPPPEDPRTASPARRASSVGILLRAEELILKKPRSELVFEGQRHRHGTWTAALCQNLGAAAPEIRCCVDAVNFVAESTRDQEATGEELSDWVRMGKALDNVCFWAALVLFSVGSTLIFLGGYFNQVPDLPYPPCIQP

DNWWPKPPHQGPRPPRPRPKP-NH2 [Az, azemiopsin]
IC50 ([1]; 30 μM ACh (EC100), transfected Neuro2a cells, Case12 sensor, 15 min preincubation, mean ± SEM, 4 independent experiments, read-out: IC50, inhibition of ACh-evoked calcium response of muscle nAChR): 19 ± 8 nM | selectivity to muscle receptor versus α7 nAChR ([1]; ratio of calcium imaging IC50 values α7 / muscle): about 140 times | excretion half-life ([2]; depending on administration way (iv or im), mice): 15 to 40 min | AUC(0 → t) ([2]; im 0.25 mg/kg, male ICR mice): 328 ng·h/mL | Cmax ([2]; im 0.25 mg/kg, male ICR mice): 278 ng/mL | T1/2 ([2]; im 0.25 mg/kg, male ICR mice): 18 min | AUC(0 → t) ([2]; im 0.50 mg/kg, male ICR mice): 622 ng·h/mL | Cmax ([2]; im 0.50 mg/kg, male ICR mice): 257 ng/mL | T1/2 ([2]; im 0.50 mg/kg, male ICR mice): 40.8 min | half-life T1/2 ([2]; intramuscular administration, 0.25 and 0.5 mg/kg, male ICR mice): 20 to 40 min | AUC(0 → t) ([2]; iv 0.25 mg/kg, male ICR mice): 214 ng·h/mL | Cmax ([2]; iv 0.25 mg/kg, male ICR mice): 517 ng/mL | T1/2 ([2]; iv 0.25 mg/kg, male ICR mice): 15.6 min | AUC(0 → t) ([2]; iv 0.50 mg/kg, male ICR mice): 542 ng·h/mL | Cmax ([2]; iv 0.50 mg/kg, male ICR mice): 745 ng/mL | T1/2 ([2]; iv 0.50 mg/kg, male ICR mice): 17.4 min | time of death after administration ([3]; im 0.725 mg/kg): 19.7 ± 5.9 min | time of death after administration ([3]; im 0.75 mg/kg): 28.8 ± 16.0 min | time of death after administration ([3]; im 0.775 mg/kg): 15.8 ± 4.3 min | time of death after administration ([3]; im 0.8 mg/kg): 12.2 ± 1.8 min | toxicity signs ([3]; im dose of 0.3 mg/kg and lower (grip strength tests)): No toxicity signs | time of appearance of visible toxic signs after administration ([3]; im, large doses): 5 to 7 min | time of complete recovery from the toxic effect after administration ([3]; im, large doses): 24 h | LD50 ([3]; intravenous administration, male ICR mice, probit analysis): 0.51 ± 0.06 mg/kg
